What all share (assay type): functional
Assay [1] has as its system Ctenocephalides felis. Briefly: Parasiticidal activity against Ctenocephalides felis after 8 hrs by cat flea assay. More on the design: concentration or dose not given beside the values.
The subject of assay [2] is Rhipicephalus sanguineus. Briefly: Parasiticidal activity against Rhipicephalus sanguineus assessed as mortality after 24 hrs by brown dog tick assay. Also on record: concentration or dose not given beside the values.
Assay [3] concerns Ctenocephalides felis. Briefly: Parasiticidal activity against Ctenocephalides felis by cat flea assay.
The test system of assay [4] is Haemonchus contortus. Briefly: Parasiticidal activity against Haemonchus contortus by larval assay.
Assay [5] concerns Trichostrongylus colubriformis. Briefly: Parasiticidal activity against Trichostrongylus colubriformis.
In assay [6] the test system is Teladorsagia circumcincta. Briefly: Parasiticidal activity against Ostertagia circumcincta McMaster.
Assay [7] deals with Haemonchus contortus. Briefly: Parasiticidal activity against avermectin-resistant Haemonchus contortus CAVR by larval assay.
Assay [8] relates to Haemonchus contortus. Briefly: Parasiticidal activity against benzimidazole and levamisole-resistant Haemonchus contortus Lawes by larval assay.
The test system of assay [9] is Ctenocephalides felis. Briefly: Parasiticidal activity against Ctenocephalides felis assessed as mortality after 24 hrs by cat flea assay. More on the design: concentration or dose not given beside the values.
In assay [10] the test system is Rhipicephalus sanguineus. Briefly: Parasiticidal activity against Rhipicephalus sanguineus assessed as mortality at 10 ug/tick by brown dog tick assay.
The subject of assay [11] is Rhipicephalus sanguineus. Briefly: Parasiticidal activity against Rhipicephalus sanguineus assessed per tick by brown dog tick assay.

Structures are written as SMILES.

With `CC/C(=N\OCc1ccc(C(F)(F)F)cc1C(F)(F)F)c1cc(Cl)ccc1NS(=O)(=O)C(F)(F)F`, the Activity stood at 100% in the assay on Ctenocephalides felis [1] and 88% with Rhipicephalus sanguineus [2]. The compound also yielded an LC50 in the assay with Ctenocephalides felis [3] of 19 ng/cm2. The LD99 with Haemonchus contortus [4] was found to be 0.56 µM.
In the case of `C/C(=N\OCc1ccc(C(F)(F)F)cc1C(F)(F)F)c1cc(Cl)ccc1NS(=O)(=O)C(F)(F)F`, the LD99 is 2.2 µM in [5]; 1.1 µM in assay [6]; 0.53 µM in the assay on Haemonchus contortus [7]; 0.53 µM with Haemonchus contortus [8]; 0.22 µM with Haemonchus contortus [4]. Further, the Activity in the assay with Ctenocephalides felis [1] is given as 2%.
Turning to `CC/C(=N\OCC1CCCCC1)c1cc(Cl)ccc1NS(=O)(=O)C(F)(F)F`, the Activity with Ctenocephalides felis [9], in the assay with Rhipicephalus sanguineus [2] and in the assay on Rhipicephalus sanguineus [10] was 100% each time. In the assay with Ctenocephalides felis [3], this compound came in with an LC50 of 29 ng/cm2. Further, the LD99 in the assay with Haemonchus contortus [4] was found to be 7 µM. In addition, the LD50 with Rhipicephalus sanguineus [11] was 3.4 µg.

For the origin of these results see ChEMBL document CHEMBL1140776, “Parasiticidal 2-alkoxy- and 2-aryloxyiminoalkyl trifluoromethanesulfonanilides” (2008).
